Entries after “also recorded” stand apart in the source; their conditions may differ. Marks after values point to notes of the source that are not given here. Residues, ends and D or L forms follow the SMILES beside them.

Results on 9 compounds are retold here after publication PMC8004729, “Multifunctional Tyrosinase Inhibitor Peptides with Copper Chelating, UV-Absorption and Antioxidant Activities: Kinetic and Docking Studies” (Foods, 2021).

The target of test [1] is T1, Mushroom tyrosinase (Agaricus bisporus, UniProt C7FF04).
T1 construct: purchased Sigma-Aldrich
In words: Diphenolase inhibitory activity of tyrosinase (ʟ-DOPA as substrate) and Lineweaver–Burk mode of inhibition. As to conditions: diphenolase reaction; for Mode of Inhibition: Lineweaver–Burk plot, [S] 0.125 to 0.5 mM, different peptide concentrations. The class given is biochemical. How it is done: (§1) The monophenolase and diphenolase inhibitory activities of tyrosinase were determined by using ʟ-tyrosine and ʟ-DOPA as substrates, respectively, as previously described. Various concentrations of peptides were tested to determine the IC50 values, i.e., the concentration of peptides required to inhibit half of the tyrosinase activities. The activities of monophenolase and diphenolase reactions were determined through the measurement of the rate of formation of dopachrome in the presence of substrate concentrations, [S] ranging from 0.125 to 0.5 mM. The initial velocity, V of the reaction was determined using the Beer–Lambert law:(1) ΔA=ε l Δc (2) V=ΔC/t=ΔA/ε l t where ΔC/t denotes the rate of change of the solution concentration; ΔA/t denotes the rate of change of absorbance i.e., slope of the reaction; ε denotes the molar extinction coefficient of dopachrome (3700 M^−1 cm^−1) and l denotes the pathlength.
Target sequence in this assay (C7FF04 1-392 limits assumed): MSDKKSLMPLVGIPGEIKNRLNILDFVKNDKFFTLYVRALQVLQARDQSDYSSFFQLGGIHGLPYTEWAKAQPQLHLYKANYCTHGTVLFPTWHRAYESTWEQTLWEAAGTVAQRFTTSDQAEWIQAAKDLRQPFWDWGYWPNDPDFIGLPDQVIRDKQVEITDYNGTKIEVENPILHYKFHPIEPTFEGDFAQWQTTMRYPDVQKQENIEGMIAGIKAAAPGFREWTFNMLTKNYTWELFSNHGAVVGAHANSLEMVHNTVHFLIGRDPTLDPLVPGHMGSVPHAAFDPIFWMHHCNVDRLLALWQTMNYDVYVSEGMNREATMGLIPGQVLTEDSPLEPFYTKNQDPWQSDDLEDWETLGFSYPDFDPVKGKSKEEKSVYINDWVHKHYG

Test [2] in a line: Copper chelating activity (pyrocatechol violet). As to conditions: peptide 10 mg/mL, 50 mM sodium acetate buffer pH 6.0, absorbance 632 nm, mean ± standard deviation (n = 3), SD. How it is done: The copper chelating activity was determined according to Kubglomsong et al.. Briefly, 4 mM of chromogenic reagent, i.e., pyrocatechol violet was prepared in 50 mM sodium acetate buffer (pH 6.0). Then, 10 µL of peptide sample (10 mg/mL), 280 µL sodium acetate buffer, 10 µL CuSO4∙5H2O and lastly 6 µL pyrocatechol violet were added to a 96-well plate. The sample solution was mixed well and the absorbance was measured at 632 nm using a spectrophotometer (Spectramax M5, Molecular Devices, San Jose, CA, USA). Ethylenediaminetetraacetic acid (EDTA) was used as the positive control. The copper chelating activity is calculated as follows:(3) Copper chelating activity %=Acontrol−Asample/Acontrol×100 where Acontrol denotes the absorbance of the system containing sodium acetate buffer, pyrocatechol violet and CuSO4∙5H2O whereas Asample denotes the absorbance of the system containing peptide, sodium acetate buffer, pyrocatechol violet and CuSO4∙5H2O.

The nature of test [3]: DPPH free radical scavenging assay. The conditions noted are these: peptide 10 mg/mL; 0.1 mM DPPH in ethanol, 30 °C for 30 min; absorbance 517 nm; mean ± standard deviation (n = 3); SD. How it is done:
The free radical scavenging potential of peptides was measured according to Blois. Briefly, 0.1 mM DPPH stock solution was prepared in ethanol. In a dark setting, 500 µL of DPPH was added to 16.65 µL peptide sample (10 mg/mL) and incubated at 30 °C for 30 min. The absorbance of the mixture was then monitored at 517 nm using a spectrophotometer. Gallic acid was used as the positive control. The DPPH free radical scavenging activity is calculated as follows:(6) DPPH free radical scavenging activity %=Acontrol−Asample/Acontrol×100 where Acontrol denotes the absorbance of the system containing DPPH and ethanol whereas Asample denotes the absorbance of the system containing DPPH and peptide sample.

Test [4] in a line: Ferric reducing antioxidant power (FRAP) assay. As to conditions: peptide 10 mg/mL; 37 °C for 1 h; absorbance 593 nm; mean ± standard deviation (n = 3); SD. Here is the method:
The reducing potential of peptides was measured according to Benzie and Strain [20]. ferric reducing antioxidant power (FRAP) reagent containing 300 mM acetate buffer (pH 3.6), 10 mM TPTZ prepared in 40 mM HCl and 20 mM FeCl3⸱6H2O in the ratio of 10:1:1 was incubated at 37 °C for 30 min. Then, 200 µL of FRAP reagent was added to 2.7 µL peptide sample (10 mg/mL) in a 96-well plate and mixed well before incubating at 37 °C for 1 h. The absorbance of the sample was then measured spectrophotometrically at 593 nm. Freshly prepared FRAP reagent was used for each run. A standard curve was prepared using FeSO4⸱7H2O at 0–3 mM. The peptide FRAP was expressed in mM FeSO4. Gallic acid was used as the positive control.

The nature of test [5]: ABTS free radical scavenging assay. As to conditions: peptide 10 mg/mL; dark, room temperature, 6 min; absorbance 734 nm; mean ± standard deviation (n = 3); SD. Here is the method:
The free radical scavenging potential of peptides was measured according to Cai, Luo, Sun and Corke. Briefly, ABTS reagent containing 7 mM ABTS and 2.45 mM ammonium persulfate were incubated in the dark at room temperature for 12–16 h. The reagent was diluted using 80% ethanol to an absorbance of 0.700 ± 0.005 at 734 nm. Then, 195 µL of the diluted ABTS reagent was added to 5 µL of peptide sample (10 mg/mL) and incubated in the dark at room temperature for 6 min. The absorbance of the sample at 734 nm was monitored immediately using a spectrophotometer. Gallic acid was used as the positive control. The ABTS free radical scavenging activity is calculated as follows:(5) ABTS free radical scavenging activity %=Acontrol−Asample/Acontrol×100 where Acontrol denotes the absorbance of the system containing ABTS and water whereas Asample denotes the absorbance of the system containing ABTS and peptide sample.

A further test addresses tyrosinase. Set-up: method as in 2 sources, ref 25 = [25]; PMID 10441774; doi:10.1002/(SICI)1099-1573(199908/09)13:5<371::AID-PTR453>3.0.CO;2-L; 25. Lim J.Y. Ishiguro K. Kubo I. Tyrosinase inhibitory p-Coumaric acid from Ginseng leaves Phytother. Res. 1999 13 371 375 10.1002/(SICI)1099-1573(199908/09)13:5<371::AID-PTR453>3.0.CO;2-L 10441774 ||| ref 26 = [26]; PMID 3141207; doi:10.1007/BF01941189; 26. Maddaluno J.F. Faull K.F. Inhibition of mushroom tyrosinase by 3-amino-L-tyrosines: Molecular probing of the active site of the enzyme Experientia 1988 44 885 887 10.1007/BF01941189 3141207. As to conditions: read-out: IC50 (tyrosinase mixed-type inhibitor); cited from earlier work.

Test [6] in a line: Sun protection factor (SPF) by UV spectrophotometry, Mansur equation. As to conditions: peptide 10 mg/mL, UVB 290–320 nm absorbance, CF 10, mean ± standard deviation (n = 3), SD. The test is classed as physicochemical. Here is the method: The ability of peptides to absorb light in the UVB region (290–320 nm) was measured according to the methods described by Dutra, Kedor-Hackmann and Santoro [18]. The UV–Vis spectrophotometer was set to scan the peptide samples from 220 to 400 nm with a 5 nm increment. The SPF values of the peptide samples (10 mg/mL) were calculated using the Mansur equation:(4) SPF=CF×∑290320EEλ×Iλ×Absλ where CF denotes correction factor of 10 (for the short pathlength used); EE denotes erythemal effect spectrum; I denotes solar intensity spectrum and Abs denotes the absorbance of sample.

Test [7] addresses T1, Mushroom tyrosinase. Briefly: Monophenolase inhibitory activity of tyrosinase (ʟ-tyrosine as substrate) and Lineweaver–Burk mode of inhibition. As to conditions: monophenolase reaction; for Tyrosinase Activity Inhibition (%): substrate ʟ-tyrosine, peptide concentration 10 mg/mL, mean ± standard deviation (n = 3), SD; for Mode of Inhibition: Lineweaver–Burk plot, [S] 0.125 to 0.5 mM, different peptide concentrations. The class given is biochemical. How it is done:
as §1
Target sequence in this assay (C7FF04 1-392): as the sequence (C7FF04 1-392 limits assumed) above

The mark [8] stands for this setting: substrate ʟ-DOPA, peptide concentration 10 mg/mL, mean ± standard deviation (n = 3), SD.

`CC(C)C[C@H](NC(=O)[C@H](CO)NC(=O)[C@H](Cc1ccc(O)cc1)NC(=O)CN)C(=O)NCC(=O)N[C@@H](CC(N)=O)C(=O)N[C@@H](Cc1c[nH]c2ccccc12)C(=O)N[C@H](C(=O)N[C@@H](CS)C(=O)N[C@@H](C)C(=O)N[C@@H](C)C(=O)N[C@@H](CCCCN)C(=O)O)C(C)C` [DIP1] (H-GYSLGNWVCAAK-OH): the 50% inhibitory concentration (IC50) at Mushroom tyrosinase [1] (substrate ʟ-DOPA, mean ± standard deviation, SD) was 3.04 ± 0.39 mM. For the same compound, the inhibition at 10000 µg/mL on Mushroom tyrosinase [1] (setting [8]) is 80 ± 2.79%.
Take `O=C(O)CN(CCN(CC(=O)O)CC(=O)O)CC(=O)O` [EDTA, Ethylenediaminetetraacetic acid, reference compound]: the “Copper Chelating Activity (%)” value in test [2] is listed as 96.06 ± 0.03^e %.
With `O=C(O)c1cc(O)c(O)c(O)c1` [Gallic acid, reference compound], in test [3], the “Antioxidant Activity DPPH (%) free radical scavenging” value is reported as 81.67 ± 0.03 ^b %. The “Antioxidant Activity FRAP (mM FeSO4)” value in test [4] is given as 16.6 ± 0.36 ^c mM FeSO4. Further, the “Antioxidant Activity ABTS (%) free radical scavenging” value in test [5] is listed as 83.14 ± 3.02 ^d %.
Consider `O=C(O)/C=C/c1ccc(O)cc1` [p-coumaric acid], for which the 50% inhibitory concentration (IC50) on tyrosinase is below 0.36 mM.
On to ADHPF [MIP1], for which the “Copper Chelating Activity (%)” value in test [2] is 94.33 ± 0.04 ^e %. In test [4], the “Antioxidant Activity FRAP (mM FeSO4)” value is listed as 0.035 ± 0.004 ^a mM FeSO4. In addition, the “Antioxidant Activity ABTS (%) free radical scavenging” value in test [5] was 2.90 ± 0.28 ^b %. For the same compound, the SPF in test [6] is 1.80 ± 0.02 ^b. For the same compound, at Mushroom tyrosinase [7], the “Tyrosinase Activity Inhibition (%)” value is 35.86 ± 2.26 ^d % and the “Mode of Inhibition” value is recorded as “competitive inhibitors”.
FDKLPGFGD [MIP3]: the “Copper Chelating Activity (%)” value in test [2] is 94.43 ± 0.46 ^e %. Further, the “Antioxidant Activity FRAP (mM FeSO4)” value in test [4] is reported as 0.034 ± 0.002 ^a mM FeSO4. Further, the “Antioxidant Activity ABTS (%) free radical scavenging” value in test [5] is 2.11%. Further, the SPF in test [6] was 1.36 ± 0.02 ^a. At Mushroom tyrosinase [7], the “Tyrosinase Activity Inhibition (%)” value is listed as 22.78 ± 1.12 ^b % and the “Mode of Inhibition” value is “mixed-type inhibitor”.
On to FMMFESQNKDLLFK [DIP3], for which the “Copper Chelating Activity (%)” value in test [2] is on record as 26.23 ± 1.03 ^c %. In addition, in test [5], the “Antioxidant Activity ABTS (%) free radical scavenging” value was 0.99%. Besides, the SPF in test [6] is reported as 1.98 ± 0.05 ^b. The “Tyrosinase Activity Inhibition (%)” value on Mushroom tyrosinase [1] (setting [8]) is listed as 28.95 ± 1.47 ^c %. For the same compound, on Mushroom tyrosinase [1], the “Mode of Inhibition” value is listed as “uncompetitive inhibitor”.
As to HIATNAVLFFGR [DIP2], in test [2], the “Copper Chelating Activity (%)” value is recorded as 19.13 ± 2.22 ^b %. Further, the “Antioxidant Activity FRAP (mM FeSO4)” value in test [4] was 0.018 ± 0.001 ^a mM FeSO4. In addition, the SPF in test [6] is on record as 6.45 ± 0.40 ^d. Also, the “Tyrosinase Activity Inhibition (%)” value at Mushroom tyrosinase [1] (setting [8]) is given as 17.70 ± 2.66 ^a %. Moreover, the “Mode of Inhibition” value at Mushroom tyrosinase [1] is “weaker competitive inhibitor; also recorded: competitive inhibitors”.
For ILELPFASGDLLML [MIP2], the “Copper Chelating Activity (%)” value in test [2] is on record as 11.41 ± 0.13 ^a %. The “Antioxidant Activity ABTS (%) free radical scavenging” value in test [5] is recorded as 1.44%. In test [6], the SPF is 3.12 ± 0.13 ^c. Further, at Mushroom tyrosinase [7], the “Tyrosinase Activity Inhibition (%)” value is 17.26 ± 2.10 ^a % and the “Mode of Inhibition” value is “weaker competitive inhibitor; also recorded: competitive inhibitors”.

Broadly, the IC50 is the midpoint of a concentration-inhibition curve. The term inhibition denotes the relative decrease from the control value, in per cent.
